Data as given in patent US20180193294A1, “Dehydroabietic acid (DHAA) derivatives for use as ion channel openers” (priority 2015, published 2018).
Like-named read-outs stand apart in the source and are kept apart here.

Key:
Assay type in all cases: cell-based
[1] = target: 3R Shaker K channel (Drosophila melanogaster, UniProt P08510, A359R/M356R); test: physchem; details: for compound-induced G(V) shift (mean±SEM) / G(V) shift: pH 7.4, Xenopus oocytes; for G(V) shift: Table 1; for Effects on K channel Mean ± SEM: Table 2, K channel expressed in Xenopus oocytes; for relative current amplitude: representative traces at voltage giving 10% of maximum conductance in control; for pKa: Drosophila melanogaster, from pH dependence of G(V) shift; for maximum shift: dose dependence fit
In short: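 Two-electrode voltage clamp at 20-23° C. in oocytes (also CHO-K1 stable line, manual patch clamp) expressing Shaker H4 lacking N-type inactivation; 1K extracellular solution, pH 7.4, holding −80 mV, 100-ms 5-mV steps up to +70 mV. Compound-induced G(V) shift taken at 10% of control Gmax (oocytes) or as V1/2 difference (CHO-K1).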

[2] = system: HL-1 cells; test: Membrane potential and firing of spontaneously beating HL-1 cells, whole-cell current clamp; details: 10 uM
Experimental: All conventional chemicals were purchased from Sigma-Aldrich (Stockholm, Sweden). The DHAA derivatives were diluted in ethanol in a 100 mM stock solution. The stock solutions were stored at −20 t for further use.
The cell culture was done according to a previous study (Claycomb et al., Proceedings of the National Academy of Sciences of the United States of America 1998; 95:2979-2984). In brief, cells were grown on gelating fibronectin coated T75 flasks. They were maintained in Claycomb Medium which was supplemented with 10% fetal bovine serum, 2 mM L-glutamine, 0.1 mM noradrenaline, and 100 U/ml, 100 μg/ml penicillin-streptomycin. Enzymatic dissociation with 0.05% trypsin-EDTA was done after full confluence. Isolated cells were plated on fibronectin-gelatin coated plastic coverslips and used for recording.
Whole-cell current-clamp recordings were done on confluent cells at 35±1° C., using an Axopatch 200B amplifier (Molecular Devices, Sunnyvale, Calif.). Patch pipettes were fabricated from borosilicate capillary glass on a vertical pipette puller and had resistances of 3-5 MO. Data were stored on a computer through Digidata 1440A interface (Molecular Devices), and was analyzed with pCLAMP software (version 10.1, Molecular Devices). The bath solution contained the following (in mM): 140 NaCl, 5.4 KCl, 1 MgCl2, 1.8 CaCl2, 10 HEPES, and 10 glucose (pH adjusted to 7.4 with NaOH). The micropipettes were filled with a solution containing (in mM): 130 K-gluconate, 9 KCl, 8 NaCl, 1 MgCl2, 10 EGTA, 10 HEPES, and 3 Na2ATP (pH adjusted to 7.3 with KOH).

[3] = target: WT Shaker K channel (Drosophila melanogaster, UniProt P08510, DEL6-46); test: physchem; details: for pKa: Drosophila melanogaster, from pH dependence of G(V) shift
Description: A Shaker K channel is a Kv channel from the fruit fly Drosophila melanogaster. It is homologous to the human Kv1-type ion channels.
All animal experiments were approved by the local Animal Care and Use Committee and followed international guidelines. A modified Shaker H4 channel^30, with removed N-type inactivation (ShH4IR)^31, here called the wild type (WT) channel, was expressed in oocytes. In addition, a modified 3R Shaker K channel where two introduced positive charged arginines (M356R and A359R) in addition to one native arginine (R362) makes the channel more sensitive to DHA^16, was expressed in oocytes and in a CHO—K1 stable cell line.
African clawed frogs (Xenopus laevis) were anesthetized with 1.4 g/L ethyl 3-aminobenzoate methanesulfonate salt (tricaine). After an incision through the abdomen a batch of oocytes were removed. Clusters of oocytes were separated by incubation for ˜1 h in a Ca-free O—R2 solution (in mM: 82.5 NaCl, 2 KCl, 5 HEPES, and 1 MgCl2; pH adjusted to 7.4 by NaOH) containing Liberase Blendzyme. The oocytes were then incubated at 8° C. in a modified Barth's solution (MBS; in mM: 88 NaCl, 1 KCl, 2.4 NaHCO3, 15 HEPES, 0.33 Ca(NO3)2, 0.41 CaCl2, and 0.82 MgSO4; pH adjusted to 7.6 by NaOH) supplemented with penicillin (25 U/ml), streptomycin (25 μg/ml), and sodium pyruvate (2.5 mM) 2-24 hours before injection. Fifty nl of cRNA (50 pg) were injected into each oocyte using a Nanoject injector (Drummond Scientific, Broomall, Pa.). Injected oocytes were kept at 8° C. in MBS until one day before electrophysiological recordings, when they were incubated at 16° C. All chemicals were supplied from Sigma-Aldrich (Stockholm, Sweden) if not stated otherwise.
All manual electrophysiological recordings were performed at room temperature (20-23° C.), using a GeneClamp 500B amplifier (for oocytes) or a Axopatch 200B amplifier (for manual patch clamp of CHO—K1 cells and DRG neurons) and a Digidata 1440A digitizer and pClamp 10 software (all from Molecular Devices, Inc., Sunnyvale, Calif., USA). Compounds were dissolved to 100 mM in 99.5% EtOH and stored at −20° C. Compounds were diluted in extracellular solution to the desired test concentration.
The oocyte was placed in a bath surrounded by 1K extracellular solution that contained (in mM): 88 NaCl, 1 KCl, 15 HEPES, 0.4 CaCl2, and 0.8 MgCl2, pH adjusted to 7.4 by NaOH (reaching a sodium concentration of ˜100 mM). Control solution was added to the bath with a gravity driven perfusion system. Compound solution was added to the bath manually with a syringe. Two glass microelectrodes were inserted into the oocyte using micromanipulators. […] All channels were closed when the potential was clamped to −80 mV and this voltage was set as the holding potential. Currents were evoked from the holding potential of −80 mV by 100-ms long, 5-mV steps ranging from −80 up to +50 mV (WT) and +70 mV (3R).
Conductance GK(V) was calculated as GK(V)=[…], (Eq. 1) where IK is the average current from the steady-state phase at the end of each 100-ms pulse, V is the membrane voltage, and Vrev is the reversal potential for K^+, (set to −80 mV for the oocytes, and calculated to be −89 mV for the CHO—K1 cells).
G(V)=A/(1+exp((V1/2−V)/s))^n (Eq. 2) where A is amplitude of the curve, V is the absolute membrane voltage, V1/2 is the midpoint, s is the slope and n is an exponent set to 4^17. The compound-induced G(V) shift was determined at the 10% level of the maximum conductance in control solution^17. The compound-induced G(V) shift in CHO—K1 was quantified by subtracting the control V1/2 from the compound V1/2 when n was set to 1.
Data for concentration and pH dependent G(V) shifts (ΔV) in oocytes were fit with a dose-response equation ΔV=ΔVmax/(1+c1/2/c), (Eq. 3) where Δvmax is the maximal shift, c1/2 is half maximal effective concentration/pKa value and c is the concentration.

WT Shaker K channel, sequence (P08510 other isoform, or with tags, fused parts or gaps DEL6-46): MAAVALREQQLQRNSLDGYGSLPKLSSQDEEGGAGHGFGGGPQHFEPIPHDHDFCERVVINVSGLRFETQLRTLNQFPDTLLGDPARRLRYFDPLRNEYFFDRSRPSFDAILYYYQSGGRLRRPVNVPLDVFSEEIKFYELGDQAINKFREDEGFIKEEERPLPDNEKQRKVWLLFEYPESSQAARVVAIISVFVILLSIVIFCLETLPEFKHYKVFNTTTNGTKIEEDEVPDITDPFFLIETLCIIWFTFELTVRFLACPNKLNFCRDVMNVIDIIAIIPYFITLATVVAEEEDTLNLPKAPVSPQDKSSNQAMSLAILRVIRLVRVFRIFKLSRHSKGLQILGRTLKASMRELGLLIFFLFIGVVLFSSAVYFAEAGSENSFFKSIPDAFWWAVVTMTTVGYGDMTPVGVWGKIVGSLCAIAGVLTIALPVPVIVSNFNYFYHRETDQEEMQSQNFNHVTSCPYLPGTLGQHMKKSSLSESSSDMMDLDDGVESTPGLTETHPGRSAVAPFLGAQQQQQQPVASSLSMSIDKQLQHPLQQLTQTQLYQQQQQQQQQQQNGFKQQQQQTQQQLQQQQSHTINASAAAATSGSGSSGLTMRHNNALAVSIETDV
3R Shaker K channel, sequence (P08510 whole entry M356R/A359R): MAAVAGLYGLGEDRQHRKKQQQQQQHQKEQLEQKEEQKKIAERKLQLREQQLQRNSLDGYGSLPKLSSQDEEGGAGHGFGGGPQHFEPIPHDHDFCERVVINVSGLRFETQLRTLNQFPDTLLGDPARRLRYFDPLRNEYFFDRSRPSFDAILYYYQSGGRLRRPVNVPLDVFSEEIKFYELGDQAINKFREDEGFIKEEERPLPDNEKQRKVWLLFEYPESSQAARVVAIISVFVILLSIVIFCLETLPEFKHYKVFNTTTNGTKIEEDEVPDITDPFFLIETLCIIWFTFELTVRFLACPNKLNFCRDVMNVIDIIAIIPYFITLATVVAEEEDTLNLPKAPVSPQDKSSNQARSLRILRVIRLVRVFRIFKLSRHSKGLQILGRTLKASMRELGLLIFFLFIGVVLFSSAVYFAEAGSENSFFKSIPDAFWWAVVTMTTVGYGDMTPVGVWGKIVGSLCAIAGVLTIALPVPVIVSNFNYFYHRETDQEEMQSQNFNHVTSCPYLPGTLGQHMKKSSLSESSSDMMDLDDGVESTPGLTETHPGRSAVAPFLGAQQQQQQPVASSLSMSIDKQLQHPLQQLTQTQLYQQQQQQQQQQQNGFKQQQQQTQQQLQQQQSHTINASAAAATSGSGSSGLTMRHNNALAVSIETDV

Row | SMILES | compound-induced G(V) shift (mean±SEM) ([1]; 100 μM) | G(V) shift ([1]; 100 μM) | Effects on K channel Mean ± SEM [1] | relative current amplitude ([1]; 100 μM, pH 7.4) | Effects on HL-1 cells Mean (membrane potential) [2] | effect on membrane potential of HL-1 cells [2] | pKa ([1]; 100 μM) | maximum shift ([1]; pH 7.4) | pKa ([3]; 100 μM) | also measured
1 | CC(C)c1ccc2c(c1)C(C(=O)O)CC1[C@](C)(C(=O)O)CCC[C@]21C (stereo partly drawn) [Wu35] | no effect on the K channel | −1.3 mV | −1.2 ± 0.6 mV | 1.3 times | 1.5 mV | no effect on the HL-1 cells | – | – | – | effect on G(V) shift / current compared with DHAA ([1]; C7-modified DHAA, 100 μM, pH 7.4): clearly reduced the current increase
2 | C[C@@]1(C(=O)O)CCC[C@]2(C)c3cc(Cl)c(Cl)c(Cl)c3CCC12 (stereo partly drawn) [Wu50, (1R,4aS)-6,7,8-trichloro-1,4a-dimethyl-1,2,3,4,4a,9,10,10a-octahydrophenanthrene-1-carboxylic acid] | −31.6±2.1 mV | −31.6 mV | −31.6 ± 2.1 mV | – | −5.5 mV | – | 6.5 | −46 mV | 6.8 | Kd [1]: 37 µM; ΔG(V) at 1 μM ([1]; 1 μM, pH 7.4): −1.3±0.3 mV; ΔG(V) of representative G(V) curves (single examples) ([1]; 100 μM, pH 7.4, same cells as representative traces): −32.6 mV; G(V) shift for WT relative to 100 μM DHAA ([3]; 100 μM, pH 7.4): ~10 times; G(V) shift for WT ([3]; 100 μM, pH 7.4, Xenopus oocytes): −21.2 mV; current amplitude increase compared to DHAA ([3]; WT channel at pH 7.4): 56 times; current amplitude increase compared to DHA (A=exp(−ΔV/4.7)) ([3]; WT, 100 μM, pH 7.4): 25 times
3 | CO/N=C1\CC2[C@](C)(C(=O)O)CCC[C@]2(C)c2cc(Br)c(C(C)C)cc21 (stereo partly drawn) [Wu32, (1R,4aS,E)-6-bromo-7-isopropyl-9-(methoxyimino)-1,4a-dimethyl-1,2,3,4,4a,9,10,10a-octahydrophenanthrene-1-carboxylic acid] | – | −30.0 mV | −30.0 ± 1.8 mV | 10.8 times | −3.6 mV | intermediate effect on the HL-1 cells | 5.8 | −41 mV | 6.1 | increase in G(V) shift relative to DHAA (ΔVc7, ΔVhalo, ΔVtot) ([1]; 100 μM, pH 7.4): −18.5 mV; factor of increase of the G(V) shift by bromination of C12 with methyloxime at C7 ([1]; Wu32 versus Wu36, 100 μM, pH 7.4): 2.5; Kd ([1]; c1/2 of dose dependence of G(V) shift (Eq. 3), pH 7.4, read-out: Kd-value): 37 µM; shift more than expected from simple addition ([1]; methyloxime at C7 plus Br-12, 100 μM, pH 7.4): −15.5 mV
